Measured values taken from patent US8466104B2, “Therapeutically active alpha MSH analogues” (AbbVie Inc., priority 2005, dated 2013).
“And” between values parts separate entries of the source, which are not always exact repeats. Identical values can stand only once. “Also recorded” adds a separate entry of the source. Like-named read-outs stand apart in the source and are kept apart here.

Assays:
[1] = system: LPS induced TNF-α in plasma; assay: Inhibition of LPS induced TNFa production in rats in vivo (experimental setup 2); set-up: species or system rat; details: for inhibitory effect on plasma TNF-a compared to native a-MSH / TNF-a concentration in plasma, % of the maximal response (LPS-Vehicle) / dose at which the maximal inhibitory effect on TNF-a is achieved: iv LPS infusion; for TNF-a concentration in plasma, % of the maximal response (LPS-Vehicle): 200 μg/kg body weight iv, 120 minutes after initiation of LPS infusion; for dose at which the maximal inhibitory effect on TNF-a is achieved: doses 50, 200, 1000 μg/kg tested
Protocol: Inhibition of LPS Induced TNFa Production in Rats In Vivo
Experimental animals. Female Wistar rats (220-240 g) are obtained from the Charles River, Sulzfeld, Germany, and housed in a temperature- (22-24° C.) and moisture-controlled (40-70%) room with a 12 h light-dark cycle (light on from 6:00 A.M. to 6:00 P.M.). The rats are maintained on a standard rodent diet with 140 mmol/kg of sodium, 275 mmol/kg potassium and 23% protein (Altromin International, Lage, Germany) and have free access to water.
Animal preparation. […] After instrumentation, the animals are housed individually for 7-10 days until the day of the experiment.
Experimental protocol. Prior to the experiments all rats are adapted to the restraining cage used for the experiments by training them for two periods of two hours each. On the day of the experiment, the animal is transferred to a restraining cage, and an intravenous infusion of vehicle solution containing 150 mM glucose is started. The infusion rate is 0.5 ml/h throughout the experiment. After a short adaptation period, infusion of lipopolysaccharide (LPS) is started. LPS (E coli serotype 0127 B8, L 3129, Sigma, St. Louis, USA) is given at a dose of 4 mg/kg body weight delivered as an i.v. infusion over 1 hour. Arterial blood samples of 0.3 ml are taken 60, 90, and 120 minutes after start of the LPS infusion and replaced immediately with heparinized blood from a normal donor rat.
In addition to LPS infusion all rats are treated with a bolus injection of: • Vehicle (0.5 mL isotonic saline); • a-MSH in one of the following doses: 50 μg/kg bw; 200 μg/kg/bw or 1000 μg/kg bw; • Test compound in one of the following doses: 50 μg/kg bw; 200 μg/kg/bw or 1000 μg/kg bw.
Measurement of TNF-α in plasma: The blood samples are collected in a prechilled test tube with 0.5 mM EDTA, pH 7.4, and 20×10^6 IU/ml aprotinin. After centrifugation at 4° C., plasma samples are transferred to pre-chilled test tubes and stored at −20° C. for later measurements of TNF-α. TNF-α in plasma is determined by an ELISA (Biotrak, Amersham, UK).
Statistical analyses. Results are presented as means±SE. A two-way ANOVA for repeated measures is used to test for differences between groups. In case of P<0.05, the differences between corresponding periods are evaluated by unpaired t-tests with Bonferroni's correction of the level of significance.

[2] = system: ischemia-induced acute renal failure in rats; assay: Inhibition of renal failure induced by 40 minutes bilateral occlusion of the renal arteries in rats (experimental setup 6); type: in vivo, rat; details: for diuresis (urine flow rate): 5 day after bilateral renal ischemia (RIR), 200 μg/kg iv; for effect on post ischemic polyuria: bilateral renal ischemia
Protocol: Inhibition of Renal Failure Induced by 40 Minutes Bilateral Occlusion of the Renal Arteries in Rats
Barrier-bred and specific pathogen-free female Wistar rats (250 g) are obtained from Charles River, Hannover, Germany. The animals are housed in a temperature (22-24° C.) and moisture (40-70%) controlled room with a 12-hour light-dark cycle (light on from 6:00 A.M. to 6:00 P.M.). All animals are given free access to tap water and a pelleted rat diet containing approximately 140 mmol/kg of sodium, 275 mmol/kg potassium and 23% protein (Altromin catalogue no. 1310, Altromin International, Lage, Germany).
The rats, which previously have been instrumented with a chronic venous catheter, are placed in metabolic cages and after a two days acclimation period to the metabolic cages, experimental ARF is induced by occlusion of both renal arteries for […]. During surgery, the rats are anesthetized with isoflurane-nitrous oxide and placed on a heated table to maintain rectal temperature at 37° C. Both kidneys are exposed through flank incisions, mobilized by being dissected free from the perirenal fat, then a small portion of the renal artery is gently dissected from the vein. The renal arteries are occluded with a smooth surfaced vascular clip (60 g pressure; World Precision Instruments, UK) for 40 min. Total ischemia is confirmed by observing blanching of the entire kidney surface. During the period of ischemia, the wounds are closed temporarily to maintain body temperature. After the clips are removed, the kidneys are observed for additional 2-5 min. to ensure color change, indicating blood reflow. Then the wound are closed with 3-0 silk ligatures. The rats returned to the metabolic cages, and daily 24 h urine output and water intake are measured for five days. As a control group, rats are subjected to sham operations identical to the ones used for ARF rats without occlusion of the renal arteries. Sham-operated rats are monitored in parallel with rats with ARF.
The rats are subjected to one of the following i.v treatments: • Vehicle: 0.5 ml 150 mM NaCl. • a-MSH: 200 μg a-melanocyte stimulating hormone/kg b.w. in 0.5 ml 150 mM NaCl. Test compound: 200 μg test compound/kg b.w. in 0.5 ml 150 mM NaCl. Treatment is given 5 minutes prior to reperfusion of the kidney and subsequently 6 and 24 hours later. Statistics
Data are presented as mean±S.E. Within group comparisons are analysed with Student's paired t test. Between group comparisons are performed by one way analysis of variance followed by Fishers Least Significant Difference test. Differences are considered significant at the 0.05 level.

Substance	reduction of TNF-a accumulation during iv infusion of LPS [1]	inhibitory effect on plasma TNF-a compared to native a-MSH [1]	TNF-a concentration in plasma, % of the maximal response (LPS-Vehicle) [1]	dose at which the maximal inhibitory effect on TNF-a is achieved [1]	inhibitory effect on plasma TNF-a compared to native a-MSH ([1]; listed as SEQ ID NO: 1*)	reduction of TNF-a accumulation during iv infusion of LPS ([1]; listed as SEQ ID NO: 1*)	diuresis (urine flow rate) [2]	effect on post ischemic polyuria [2]	effect on post ischemic polyuria ([2]; listed as SEQ ID NO: 1)	inhibitory effect on plasma TNF-a compared to native a-MSH ([1]; listed as SEQ ID NO: 5*)	reduction of TNF-a accumulation during iv infusion of LPS ([1]; listed as SEQ ID NO: 5*)	inhibitory effect on plasma TNF-a compared to native a-MSH ([1]; listed as SEQ ID NO: 9*)	reduction of TNF-a accumulation during iv infusion of LPS ([1]; listed as SEQ ID NO: 9*)
Ac-Lys-Lys-Lys-Lys-Lys-Lys-Ser-Tyr-Ser-Met-Glu-His-Phe-Arg-Trp-Gly-Lys-Pro-Val-NH2 (Ac-KKKKKKSYSMEHFRWGKPV-NH2) [a-MSH analogue #1]	reduce TNF-a accumulation	markedly more pronounced	9±1%	200 μg/kg body weight	higher degree	significantly inhibit	18.8±3.6 ml/24 hours	complete normalization of urine flow rate	completely normalized the diuresis				
Ac-Lys-Lys-Lys-Lys-Lys-Lys-Ser-Tyr-Ser-Nle-Glu-His-(D-Phe)-Arg-Trp-Gly-Lys-Pro-Val-NH2 (KKKKKKSYSXEHFRWGKPV; N-acetyl, Nle, D-Phe, C-amide) [a-MSH analogue #2]	reduce TNF-a accumulation	markedly more pronounced	9±1%	200 μg/kg body weight				markedly reduces the degree of polyuria		higher degree	significantly inhibit		
Ac-Lys-Lys-Lys-Lys-Lys-Lys-Ser-Tyr-Ser-Nle-Glu-His-D-Nal-Arg-Trp-Gly-Lys-Pro-Val-NH2 (KKKKKKSYSXEHXRWGKPV; not fully specified; N-acetyl, Nle, D-Nal, C-amide) [a-MSH analogue #3]	reduce TNF-a accumulation	markedly more pronounced	11±3%	200 μg/kg body weight								higher degree	significantly inhibit
Ser-Tyr-Ser-Met-Glu-His-Phe-Arg-Trp-Gly-Lys-Pro-Val [a-MSH, reference compound]	reduce TNF-a accumulation; also recorded: reduce TNF-α accumulation		17±3% and 17±30%	200 μg/kg body weight			29.0±2.9 ml/24 hours	unable to reduce the polyuria; also recorded: unable to normalize the urine production					
